Assay results reported in patent publication US8815893B2, “Hetarylaminonaphthyridines” (Merck Patent GmbH, priority 2010, dated 2014).

system: lung epithelial cell line Mv1Lu; assay: Cellular assay for TGF-beta receptor I kinase inhibitors: elimination of TGF-beta-mediated growth inhibition (example 13); type: cell-based; conditions: 48 h; Mv1Lu cells, 1 ng/ml TGF-beta, 0.5% FCS, two days, Crystal Violet staining; read-out: TβR activity (example 13)
Method: Cellular Assay for Testing TGF-Beta Receptor I Kinase Inhibitors
As an example, the ability of the inhibitors to eliminate TGF-beta-mediated growth inhibition was tested. Cells of the lung epithelial cell line Mv1Lu were sown in a defined cell density in a 96-well microtiter plate and cultivated overnight under standard conditions. Next day, the medium was replaced by medium which comprises 0.5% of FCS and 1 ng/ml of TGF-beta, and the test substances were added in defined concentrations, generally in the form of dilution series with 5 fold steps. The concentration of the solvent DMSO was constant at 0.5%. After a further two days, Crystal Violet staining of the cells was carried out. After extraction of the Crystal Violet from the fixed cells, the absorption was measured spectrophotometrically at 550 nm. It could be used as a quantitative measure of the adherent cells present and thus of the cell proliferation during the culture.

Compound	IC50
CN1CCC(C(=O)Nc2cc(Nc3cc(-c4cc(F)ccc4F)nc4ncccc34)ncn2)CC1 [compound 117]	< 100 nM
CC(=O)Nc1cc(Nc2cc(-c3cc(F)ccc3F)nc3ncccc23)ncn1 [compound 89]	< 100 nM
CN1CCC(C(=O)Nc2cc(Nc3cc(-c4cc(Cl)ccc4F)nc4ncccc34)ncn2)CC1 [compound 111]	< 100 nM

target: T1, GST-ALK5 (Homo sapiens, UniProt P36897); assay: In-vitro (enzyme) kinase assay, 384-well flashplate (example 14); type: biochemical; conditions: GST-ALK5, GST-SMAD2 substrate, 33P-ATP flashplate, 30° C. 45 min; IC50 classes; read-out: TβR activity (example 14)
T1 sequence (P36897 34-503): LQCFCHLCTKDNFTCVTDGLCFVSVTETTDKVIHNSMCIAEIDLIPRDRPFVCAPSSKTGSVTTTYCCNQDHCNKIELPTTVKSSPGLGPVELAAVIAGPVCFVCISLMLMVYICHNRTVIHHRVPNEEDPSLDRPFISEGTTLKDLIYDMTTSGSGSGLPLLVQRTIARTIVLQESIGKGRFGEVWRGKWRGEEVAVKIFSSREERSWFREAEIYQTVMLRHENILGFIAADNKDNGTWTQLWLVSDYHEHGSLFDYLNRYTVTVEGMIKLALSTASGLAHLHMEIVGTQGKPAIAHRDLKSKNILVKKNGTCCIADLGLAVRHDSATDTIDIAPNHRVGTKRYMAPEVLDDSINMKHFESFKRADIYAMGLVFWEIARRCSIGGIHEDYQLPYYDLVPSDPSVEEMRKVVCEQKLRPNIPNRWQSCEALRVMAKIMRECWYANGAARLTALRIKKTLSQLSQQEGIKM
Method: In-Vitro (Enzyme) Assay for Determination of the Efficacy of Inhibitors of the Inhibition of TGF-Beta-Mediated Effects
The kinase assay was carried out as 384-well flashplate assay. 31.2 nM of GST-ALK5, 439 nM of GST-SMAD2 and 3 mM of ATP (with 0.3 μCi of ^33P-ATP/well) were incubated in a total volume of 35 μl (20 mM of HEPES, 10 mM of MgCl2, 5 mM of MnCl2, 1 mM of DTT, 0.1% of BSA, pH 7.4) without or with test substance (5-10 concentrations) at 30° C. for 45 min. The reaction was stopped using 25 μl of 200 mM EDTA solution, filtered with suction at room temperature after 30 min, and the wells were washed with 3 times 100 μl of 0.9% NaCl solution. Radioactivity was measured in the TopCount. The IC50 values were calculated using RS1. Above and below, all temperatures were indicated in ° C.

IC50	Compound
< 100 nM	CN1CCC(C(=O)Nc2cc(Nc3cc(-c4cc(F)ccc4F)nc4ncccc34)ncn2)CC1 [compound 117]
< 100 nM	O=c1[nH]c2cnccc2n1-c1cc(-c2cc(Cl)ccc2F)nc2ncccc12 [compound 29]
< 100 nM	O=C(O)c1cnccc1Nc1cc(-c2cc(Cl)ccc2F)nc2ncccc12 [compound 63]
< 100 nM	Nc1nccc(Nc2cc(-c3cc(Cl)ccc3F)nc3ncccc23)n1 [compound 52]
< 100 nM	CC(=O)Nc1cc(Nc2cc(-c3cc(F)ccc3F)nc3ncccc23)ncn1 [compound 89]
< 100 nM	Fc1ccc(-c2cc(Nc3ccncc3)c3cccnc3n2)cc1 [compound 06]
< 100 nM	CCNC(=O)c1cnccc1Nc1cc(-c2cccc(C)n2)nc2ncccc12 [compound 60]
< 100 nM	CN1CCC(C(=O)Nc2cc(Nc3cc(-c4cc(Cl)ccc4F)nc4ncccc34)ncn2)CC1 [compound 111]
< 100 nM	Cc1nn(-c2cc(-c3cc(Cl)ccc3F)nc3ncccc23)c2ccncc12 [compound 71]
< 100 nM	N#Cc1cnccc1Nc1cc(-c2cc(Cl)ccc2F)nc2ncccc12 [compound 65]
100 to 1000 nM	CN1CCN(c2ccc(Nc3cc(Nc4cc(-c5cc(Cl)ccc5F)nc5ncccc45)ccn3)cc2)CC1 [compound 27]
< 100 nM	Fc1cc(F)c(-c2cc(Nc3ccncc3)c3cccnc3n2)cc1F [compound 43]
< 100 nM	Clc1cccc(-c2cc(Nc3ccncc3)c3cccnc3n2)c1 [compound 11]
1000 to 10000 nM	c1cnc2nc(-c3cnccn3)cc(Nc3ccncc3)c2c1 [compound 24]
100 to 1000 nM	CCNCCOc1cnccc1Nc1cc(-c2cc(Cl)ccc2F)nc2ncccc12 [compound 46]
< 100 nM	CC(C)(C)OC(=O)Nc1nccc(Nc2cc(-c3cc(Cl)ccc3F)nc3ncccc23)n1 [compound 51]
< 100 nM	Cc1cccc(-c2cc(Nc3cc(N)ncn3)c3cccnc3n2)n1 [compound 55]
< 100 nM	Fc1ccc(Cl)cc1-c1cc(Nc2ccnc(Cl)c2)c2cccnc2n1 [compound 62]
< 100 nM	Fc1ccc(C(F)(F)F)cc1-c1cc(-n2ccc3cnccc32)c2cccnc2n1 [compound 30]
< 100 nM	Fc1ccc(C(F)(F)F)cc1-c1cc(Nc2ncncn2)c2cccnc2n1 [compound 44]
< 100 nM	Fc1ccc(Cl)cc1-c1cc(Nc2ccncc2OCCCN2CCOCC2)c2cccnc2n1 [compound 34]
100 to 1000 nM	Fc1ccc(Cl)cc1-c1cc(Nc2ccncc2OCCN2CCOCC2)c2cccnc2n1 [compound 04]
< 100 nM	CNC(=O)c1cc(Nc2cc(-c3cc(Cl)ccc3F)nc3ncccc23)ccn1 [compound 53]
< 100 nM	Fc1ccc(F)c(-c2cc(Nc3ccncc3)c3cccnc3n2)c1 [compound 13]

IC50	Compound
100 to 1000 nM	CCN(CCOc1cnccc1Nc1cc(-c2cc(Cl)ccc2F)nc2ncccc12)C(=O)OC(C)(C)C [compound 45]
100 to 1000 nM	Cn1ccc(-c2cc(Nc3ccncc3)c3cccnc3n2)n1 [compound 35]
< 100 nM	Fc1ccc(C(F)(F)F)cc1-c1cc(Nc2ccncn2)c2cccnc2n1 [compound 21]
< 100 nM	CC(=O)Nc1cc(Nc2cc(-c3cc(Cl)ccc3F)nc3ncccc23)ccn1 [compound 67]
100 to 1000 nM	Cc1cccc(-c2cc(-n3ccc4cncnc43)c3cccnc3n2)n1 [compound 59]
< 100 nM	Fc1ccc(Cl)cc1-c1cc(Nc2ccncc2)c2cccnc2n1 [compound 01]
100 to 1000 nM	CCOc1cc(Nc2cc(-c3cc(Cl)ccc3F)nc3ncccc23)ccn1 [compound 07]
< 100 nM	FC(F)(F)c1cccc(-c2cc(Nc3ccncc3)c3cccnc3n2)c1 [compound 12]
< 100 nM	Fc1cc(F)c(-c2cc(Nc3ccncn3)c3cccnc3n2)cc1F [compound 50]
< 100 nM	COCCOc1cnccc1Nc1cc(-c2cc(C(F)(F)F)ccc2F)nc2ncccc12 [compound 26]
> 10000 nM	Fc1ccc(Cl)cc1-c1cc(Oc2ccncc2)c2cccnc2n1 [compound 56]
< 100 nM	Cc1cccc(-c2cc(-n3ccc4cnccc43)c3cccnc3n2)n1 [compound 57]
1000 to 10000 nM	Cn1cc(-c2cc(Nc3ccncc3)c3cccnc3n2)cn1 [compound 19]
< 100 nM	Fc1ccc(C(F)(F)F)cc1-c1cc(Nc2ccncc2)c2cccnc2n1 [compound 16]
< 100 nM	Cc1cccc(-c2cc(Nc3ccncc3)c3cccnc3n2)n1 [compound 03]
< 100 nM	CN(C)CCOc1cnccc1Nc1cc(-c2cc(Cl)ccc2F)nc2ncccc12 [compound 23]
< 100 nM	COC(=O)c1cc(Nc2cc(-c3cc(Cl)ccc3F)nc3ncccc23)ccn1 [compound 48]
1000 to 10000 nM	Fc1ccc(Cl)cc1-c1cc(Nc2ccnc(Nc3cc(-c4cc(Cl)ccc4F)nc4ncccc34)n2)c2cccnc2n1 [compound 39]
< 100 nM	c1ccc(-c2cc(Nc3ccncc3)c3cccnc3n2)nc1 [compound 25]
1000 to 10000 nM	Cn1nccc1-c1cc(Nc2ccncc2)c2cccnc2n1 [compound 36]
< 100 nM	OCc1cnccc1Nc1cc(-c2cc(Cl)ccc2F)nc2ncccc12 [compound 20]
< 100 nM	Fc1ccccc1-c1cc(Nc2ccncc2)c2cccnc2n1 [compound 10]
1000 to 10000 nM	CN1CCN(c2cc(Nc3cc(-c4cc(Cl)ccc4F)nc4ncccc34)ccn2)CC1 [compound 08]
< 100 nM	Fc1ccc(Cl)cc1-c1cc(-n2ccc3cnccc32)c2cccnc2n1 [compound 14]

IC50	Compound
< 100 nM	Fc1ccc(Cl)cc1-c1cc(Nc2ccncn2)c2cccnc2n1 [compound 05]
< 100 nM	Cc1cccc(-c2cc(Nc3ccncn3)c3cccnc3n2)n1 [compound 49]
< 100 nM	OCCOc1cnccc1Nc1cc(-c2cc(Cl)ccc2F)nc2ncccc12 [compound 09]
< 100 nM	COCCOc1cnccc1Nc1cc(-c2cc(Cl)ccc2F)nc2ncccc12 [compound 15]
< 100 nM	CC(C)C(=O)Nc1cc(Nc2cc(-c3cc(Cl)ccc3F)nc3ncccc23)ccn1 [compound 70]
< 100 nM	CN1CCC(COc2cnccc2Nc2cc(-c3cc(Cl)ccc3F)nc3ncccc23)CC1 [compound 47]
< 100 nM	Fc1ccc(Cl)cc1-c1cc(Sc2ccncc2)c2cccnc2n1 [compound 58]
< 100 nM	OCc1cnccc1Nc1cc(-c2cc(C(F)(F)F)ccc2F)nc2ncccc12 [compound 37]
< 100 nM	Fc1ccc(Cl)cc1-c1cc(-n2ccc3cncnc32)c2cccnc2n1 [compound 54]
1000 to 10000 nM	O=C(O)c1cc(Nc2cc(-c3cc(Cl)ccc3F)nc3ncccc23)ccn1 [compound 68]
< 100 nM	Nc1cc(Nc2cc(-c3cc(C(F)(F)F)ccc3F)nc3ncccc23)ncn1 [compound 32]
< 100 nM	Nc1cnccc1Nc1cc(-c2cc(Cl)ccc2F)nc2ncccc12 [compound 22]
100 to 1000 nM	N#Cc1ccccc1-c1cc(Nc2ccncc2)c2cccnc2n1 [compound 61]
< 100 nM	Nc1cc(Nc2cc(-c3cc(Cl)ccc3F)nc3ncccc23)ncn1 [compound 02]
100 to 1000 nM	c1cnc2nc(-c3cn[nH]c3)cc(Nc3ccncc3)c2c1 [compound 31]
< 100 nM	COC(=O)c1cnccc1Nc1cc(-c2cc(Cl)ccc2F)nc2ncccc12 [compound 40]
< 100 nM	Fc1ccc(OC(F)(F)F)cc1-c1cc(Nc2ccncc2)c2cccnc2n1 [compound 38]
< 100 nM	CNC(=O)c1cnccc1Nc1cc(-c2cc(Cl)ccc2F)nc2ncccc12 [compound 42]
< 100 nM	Cc1ccn(-c2cc(Nc3ccncc3)c3cccnc3n2)n1 [compound 28]
< 100 nM	CN(C)CCCOc1cnccc1Nc1cc(-c2cc(Cl)ccc2F)nc2ncccc12 [compound 33]
< 100 nM	N#Cc1cncnc1Nc1cc(-c2cc(Cl)ccc2F)nc2ncccc12 [compound 41]
< 100 nM	Fc1ccc(Cl)cc1-c1cc(Nc2ncncn2)c2cccnc2n1 [compound 18]
< 100 nM	Fc1ccccc1-c1cc(Nc2ccncn2)c2cccnc2n1 [compound 17]
